Patent US20110263557A1, “COMPOUNDS AND COMPOSITIONS AS MODULATORS OF GPR119 ACTIVITY” (IRM LLC, priority 2008, published 2011)

Molecular target: T1, human GPR119 (Homo sapiens, UniProt Q8TDV5)
T1 construct: expressed in transfected cells
T1 sequence (Q8TDV5 1-335): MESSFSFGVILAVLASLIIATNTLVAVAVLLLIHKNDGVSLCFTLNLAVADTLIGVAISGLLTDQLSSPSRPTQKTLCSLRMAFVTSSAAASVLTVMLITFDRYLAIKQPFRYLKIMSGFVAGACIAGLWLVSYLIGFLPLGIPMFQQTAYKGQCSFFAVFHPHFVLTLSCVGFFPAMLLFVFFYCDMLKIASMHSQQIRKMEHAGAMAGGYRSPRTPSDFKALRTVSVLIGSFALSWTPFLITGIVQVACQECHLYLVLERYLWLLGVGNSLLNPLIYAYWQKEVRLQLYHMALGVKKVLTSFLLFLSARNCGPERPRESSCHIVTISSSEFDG
Assay: Cyclic AMP assay in stable cell line (Flp-In-CHO-hGPR119, HTRF)
Format: cell-based
Conditions: Flp-In-CHO-hGPR119 cells, intracellular cAMP by HTRF, 1 mM IBMX, 37° C. for 30 minutes; read-out: CHO-GPR119-HTRF (3158)
Procedure: Flp-In-CHO cells (Invitrogen, Cat.#R758-07) are maintained in Ham's F12 medium supplemented with 10% fetal bovine serum, 1% antibiotic mixture and 2 mM L-glutamine. The cells are transfected with a DNA mixture containing human GPR119 in pcDNA5/FRT vector and the pOG44 vector (1:9) using Fugene6 (Roche), according to the manufacturer's instruction. After 48 hours, the medium is changed to medium supplemented with 400 μg/ml hygromycin B to initiate the selection of stably transfected cells.
To test the activity of compounds of the invention, Flp-In-CHO-hGPR119 cells are harvested and resuspended in DMEM plus 3% lipid-depleted fetal bovine serum. Forth μl of cells are plated in 384 well plates at a density of 15,000 cells/well. IBMX (3-isobutyl-1-methyl-xanthine) is added to the cells to a final concentration of 1 mM, followed by the addition of 500 nl of the compound to be tested. The cells are incubated at 37° C. for 30 minutes. Equal volume (20 μl) of the HTRF reagents, anti-cAMP-Cryptate and cAMP-XL665, are added to the cells. The plates are incubated at room temperature for 1 hour and read on a HTRF reader according to the manufacturer's instruction.
Compounds of Formula I, in free form or in pharmaceutically acceptable salt form, produced a concentration-dependent increase in intracellular cAMP level. […] For example, the following tables show some EC50 data for a representative sample of compounds of the invention: […]

CS(=O)(=O)N1CCN(Cc2ccc(OC3CCN(c4ccc(C(F)(F)F)cn4)CC3)cc2)CC1 [Example B6, 1-(methylsulfonyl)-4-(4-(1-(5-(trifluoromethyl)pyridin-2-yl)piperidin-4-yloxy)benzyl)piperazine]
EC50: 220 nM

CCc1cnc(N2CCC(Oc3ccc(CN4CCN(S(C)(=O)=O)CC4)cc3NCCOC)CC2)nc1 [Example C9, 2-(1-(5-Ethylpyrimidin-2-yl)piperidin-4-yloxy)-N-(2-methoxyethyl)-5-((4-(methylsulfonyl)piperazin-1-yl)methyl)aniline]
EC50: 136 nM

CCc1cnc(N2CCC(Oc3ccc(CN4CCN(S(C)(=O)=O)CC4=O)cc3Cl)CC2)nc1 [Example E4, 1-(3-Chloro-4-(1-(5-ethylpyrimidin-2-yl)piperidin-4-yloxy)benzyl)-4-(methylsulfonyl)piperazin-2-one]
EC50: 812 nM

CCc1cnc(N2CCC(Oc3ccc(CC4CCN(S(C)(=O)=O)CC4)cc3Cl)CC2)nc1 [Example E2, 2-(4-(2-Chloro-4-((1-(methylsulfonyl)piperidin-4-yl)methyl)phenoxy)piperidin-1-yl)-5-ethylpyrimidine]
EC50: 3 nM

CC(C)c1noc(N2CCC(Oc3ccc(CN4CCN(S(C)(=O)=O)CC4)cc3Cl)CC2)n1 [Example B11, 5-(4-(2-chloro-4-((4-(methylsulfonyl)piperazin-1-yl)methyl)phenoxy)piperidin-1-yl)-3-isopropyl-1,2,4-oxadiazole]
EC50: 13 nM

CCc1cnc(N2CCC(Oc3ccc(CN4CCN(S(C)(=O)=O)CC4)cc3F)CC2)nc1 [Example A6, 5-ethyl-2-(4-(2-fluoro-4-((4-(methylsulfonyl)piperazin-1-yl)methyl)phenoxy)piperidin-1-yl)pyrimidine]
EC50: 20 nM

CCc1cnc(N2CCC(Oc3ccc(CN4CCN(S(C)(=O)=O)CC4)cc3CCCOC)CC2)nc1 [Example C2]
EC50: 187 nM

CCc1cnc(N2CCC(Oc3ccc(CN4CCN(S(=O)(=O)CCCO)CC4)cc3Cl)CC2)nc1 [Example D1, 3-(4-(3-Chloro-4-(1-(5-ethylpyrimidin-2-yl)piperidin-4-yloxy)benzyl)piperazin-1-ylsulfonyl)propan-1-ol]
EC50: 8 nM

CCc1cnc(N2CCC(Oc3ccc(CN4CCN(S(C)(=O)=O)CC4)cc3C(=O)OC)CC2)nc1 [Example A14, methyl 2-(1-(5-ethylpyrimidin-2-yl)piperidin-4-yloxy)-5-((4-(methylsulfonyl)piperazin-1-yl)methyl)benzoate]
EC50: 313 nM

CCc1cnc(N2CCC(Oc3ccc(CN4CCN(S(C)(=O)=O)CC4)cc3Br)CC2)nc1 [Example A8, 2-(4-(2-bromo-4-((4-(methylsulfonyl)piperazin-1-yl)methyl)phenoxy)piperidin-1-yl)-5-ethylpyrimidine]
EC50: 5 nM

CCc1cnc(N2CCC(Oc3ccc(CN4CCN(S(C)(=O)=O)CC4)nc3)CC2)nc1 [Example A13, 5-ethyl-2-(4-(6-((4-(methylsulfonyl)piperazin-1-yl)methyl)pyridin-3-yloxy)piperidin-1-yl)pyrimidine]
EC50: 867 nM

CN(C)C(=O)c1cnc(N2CCC(Oc3ccc(CN4CCN(S(C)(=O)=O)CC4)cc3Cl)CC2)nc1 [Example B13, 2-(4-(2-chloro-4-((4-(methylsulfonyl)piperazin-1-yl)methyl)phenoxy)piperidin-1-yl)-N,N-dimethylpyrimidine-5-carboxamide]
EC50: 465 nM

CC1(OC(=O)N2CCC(Oc3ccc(CN4CCN(S(C)(=O)=O)CC4)cc3Cl)CC2)CC1 [Example B3, 1-Methylcyclopropyl 4-(2-chloro-4-((4-(methylsulfonyl)piperazin-1-yl)methyl)phenoxy)piperidine-1-carboxylate]
EC50: 22 nM

CCc1cnc(N2CCC(Oc3ccc(CN4CC(N(C)S(C)(=O)=O)C4)cc3Cl)CC2)nc1 [Example E15, N-(1-(3-Chloro-4-(1-(5-ethylpyrimidin-2-yl)piperidin-4-yloxy)benzyl)azetidin-3-yl)-N-methylmethanesulfonamide]
EC50: 114 nM

Cn1nnc(-c2cnc(N3CCC(Oc4ccc(CN5CCN(S(C)(=O)=O)CC5)cc4Cl)CC3)nc2)n1 [Example B17, 2-(4-(2-Chloro-4-((4-(methylsulfonyl)piperazin-1-yl)methyl)phenoxy)piperidin-1-yl)-5-(2-methyl-2H-tetrazol-5-yl)pyrimidine]
EC50: 9 nM

CC1(OC(=O)N2CCC(Oc3ccc(CN4CCN(S(C)(=O)=O)CC4)cc3)CC2)CC1 [Example B2, 1-Methylcyclopropyl 4-(4-((4-(methylsulfonyl)piperazin-1-yl)methyl)phenoxy)piperidine-1-carboxylate]
EC50: 127 nM

CCc1cnc(N2CCC(Oc3ccc(CN4CCC(c5nnn(C)n5)CC4)cc3Cl)CC2)nc1 [Example E12, 2-(4-(2-chloro-4-((4-(2-methyl-2H-tetrazol-5-yl)piperidin-1-yl)methyl)phenoxy)piperidin-1-yl)-5-ethylpyrimidine]
EC50: 2680 nM

CCc1cnc(N2CCC(Oc3ccc(CN4CCN(S(C)(=O)=O)CC4)cc3-c3ccn[nH]3)CC2)nc1 [Example C5, 5-ethyl-2-(4-(4-((4-(methylsulfonyl)piperazin-1-yl)methyl)-2-(1H-pyrazol-5-yl)phenoxy)piperidin-1-yl)pyrimidine]
EC50: 44 nM

CCc1cnc(N2CCC(Oc3ccc(CN4CCN(S(C)(=O)=O)CC4)c(C)c3)CC2)nc1 [Example A2, 5-ethyl-2-(4-(3-methyl-4-((4-(methylsulfonyl)piperazin-1-yl)methyl)phenoxy)piperidin-1-yl)pyrimidine]
EC50: 203 nM

CCc1cnc(N2CCC(Oc3ccc(CN4CCN(S(C)(=O)=O)CC4)cc3)CC2)nc1 [Example A1]
EC50: 56 nM
